# Measurements: patent EP2532368A1, “"Composition for oral delivery of biologically-active substances"” (Peluso, Gianfranco, priority 2011, dated 2012)
# Tested on: DSS-induced colitis
# Assay: DSS-induced colitis in mice
# Type: in vivo, C57BL/6 mice
# Conditions: 3% DSS in water, daily gavage for 7 days
smiles,measurement,setting,value
"Nc1ccc(O)c(C(=O)O)c1 [5-ASA, 5-Aminosalicylic acid]",weight loss,,does not reduce the severity of weight loss
same,Intestinal myeloperoxidase (MPO) activity,colon,has no effect on the basal MPO levels
